Laboratory results: publication PMC6394990, “Detailed characterization of the solution kinetics and thermodynamics of biotin, biocytin and HABA binding to avidin and streptavidin” (PLoS ONE, 2019)
Values joined by “and” are separate entries in the source; they are usually repeats but may differ in a detail not shown here. Equal entries are not always repeated.

Legend:
avidin (AV) [1] = biological target: T1, avidin (AV) (Gallus gallus, UniProt P02701); assay: Quantum yields (QY), AV complex; format: physicochemical; conditions: for Quantum Yield QY: AV complex (AB1); for dQY-AV: fractional change of QY, AV complex against dye
T1 construct: purchased Calbiochem (La Jolla, CA)
Protocol: (§1) The lifetimes (τ), steady state anisotropies (rss), time-resolved anisotropies (rt) and quantum yields (QY) of the complexes (at 20 ± 0.1°C and pH 8) were collected with a dye-labeled B7 probe concentration of 20–40 nM and 1040–2080 nM of either protein (AV or SAV) to ensure that only one binding site in the tetramer was filled with a ligand (AB1 filling model).
(§2) The QY values were obtained by using a reference fluorophore of known quantum yield and were calculated according to Parker and Rees, where the reference dye was fluorescein in 0.1N sodium hydroxide solution [46]. The emission fluorescence scans were collected from 480 nm to 700 nm with the excitation light set at 460 nm provided by the xenon arc lamp described above. These measurements were made on the AB1 complexes at high protein concentration.

de-glycosylated AV = biological target: T2, de-glycosylated AV (Gallus gallus, UniProt P02701); assay: Stopped-flow association kinetics with endoglycosidase H de-glycosylated avidin; format: binding
T2 construct: purchased Calbiochem (La Jolla, CA)
Protocol: These reactions were carried out in a buffered solution of 10 mM Tris-HCl, 100 mM KCl, 2.5 mM MgCl2 and 1 mM CaCl2 at pH 8 and only AV-BcO reactions included pH 9 and 10. The concentrations, after mixing, were of 20 nM of dye-labeled B7 probe and 260 nM, 520 nM or 1040 nM of AV; and 200 nM, 300 nM, 400 nM or 800 nM of SAV at temperatures of 10, 15, 20 and 25°C. The deglycosylation of AV (for comparative association reactions) was carried out using the provided standard protocol with endoglycosidase H [47], both with and without incubation of a denaturant solution (2% SDS and 1M 2-mercaptoethanol).
The reactions were collected with the SF instrument, described previously. The fluorescence signal was collected through a 520 nm interference filter (Oriel Corp., Stratford, CT) with a detector time constant and SF dead time of 1 μs and 1 ms, respectively. The excitation light was provided by the Coherent Ar^+ ion laser (described above) at 488 nm with […] of incident power on the reaction cuvette. The laser source was followed by the photo-elastic modulator described above with the axis oriented 45^o with respect to the electric vector of the incident light and with the half-wave modulation (50 kHz) set for 488 nm excitation. The demodulation circuitry following the photomultiplier provided a DC(t) and a rectified AC(t) which were converted to digital data by a high-speed digitizer (PCI-5122) from National Instruments (Austin, TX) with 14-bit resolution and 100 MHz bandwidth, through channels 0 and 1. The data acquisition was controlled by LabVIEW (Vr 8) software at a collection rate of 6120 data points/second and stored in spreadsheets. The AC(t) and DC(t) data were baseline corrected before obtaining the signal ratio (Eq 4) as a function of time (ρt).

avidin (AV) [2] = biological target: T1, avidin (AV); assay: Absorbance and fluorescence emission spectra, AV complex; format: physicochemical; conditions: for Maximum Absorbance / Maximum Emission: AV complex (AB1); for Abs (nm) / Emission (nm): complex with AV
Protocol: as §1, §2
Supplementary file pone.0204194.s001.docx: S1 Fig Absorbance spectra of dye-labeled B7 probes and respective complexes with AV and SAV. […] The spectra are normalized to the calculated molar absorptivies. […] The labeled probes and protein concentrations were 1 μM and 10 μM, respectively. (DOCX) Click here for additional data file.
Supplementary file pone.0204194.s002.docx: S2 Fig Fluorescence emission spectra of dye-labeled B7 and respective complexes with AV and SAV. […] The probe and protein concentrations were 20 nM and 1040 nM (AB1 filling model), respectively. (DOCX) Click here for additional data file.

streptavidin (SAV) = biological target: T3, streptavidin (SAV) (Streptomyces avidinii, UniProt P22629); assay: Fluorescence lifetimes, SAV complex; format: physicochemical; conditions: for t (1), fluorescence lifetime: complex with SAV, t for BFl and BcO, average lifetime for B-DNAds*Fl
T3 construct: purchased Sigma Aldrich (St. Louis, MO)
Protocol: as §1
The lifetimes were collected in a FluoTime100 fluorescence spectrometer (PicoQuant, GmbH, Berlin, Germany) with the excitation light source provided by a picosecond pulsed diode laser (PicoQuant, GmbH, Berlin, Germany) at 470 nm and 20 MHz. The emission was collected at 520 nm through a non-fluorescing 520 nm interference filter (Oriel Corp., Stratford, CT) followed by a liquid filter of 1cm path length containing 24 mM acetate buffered dichromate at pH 4, between the sample and detector to eliminate traces of excitation light. The fluorescence decays were fit by a nonlinear least-squares minimization based on the Marquardt algorithm embedded in the Fluofit software (PicoQuant GmbH). Twenty-eight decays were collected per sample, the decays were grouped in four sets, consisting of seven sample decays and one Instrument Response Function, IRF, for deconvolution proposes. The decay sets were globally fitted to mono- or bi-exponential decay models that were discriminated using the statistical parameter χ^2. The rt data were acquired with the fluorimeter described above equipped with a polarizer and an analyzer to acquire the parallel VV(t) and perpendicular VH(t) decays. The PicoQuant G factor was calculated according to: G = ∫HV(t)dt/∫HH(t)dt, where HV(t) and HH(t) were the decays collected with the emission polarizer selecting vertical and horizontal E-vector passing orientations, respectively, and the excitation polarizer set at horizontally position.

[3] = Intrinsic lifetime, dynamic quantum yield and fraction of non-statically quenched molecules, unbound probe; format: physicochemical; conditions: for t° (2), intrinsic lifetime of the fluorescence dye: in ns; for 1-S (4) = QY/F, fraction of non-statically quenched molecules / F (3) = Sat/t° / S: unbound dye
[4] = Steady-state anisotropy (rss), unbound probe; format: physicochemical
Protocol: as §1
The rss measurements were collected using the Giblin-Parkhurst modification of the Wampler-Desa method as described previously. The fluorescence signal was detected in a model A-1010 Alphascan fluorimeter (Photon Technologies, Inc., Birmingham, NJ) equipped with an R928 PMT (Hamamatsu, Bridgewater, NJ). The excitation was provided by an Ar^+ ion laser (Coherent Innova 70–4 Argon, Santa Clara, CA) at 488 nm and 5–10 mW of power incident on the sample. […] The fluorimeter G factor was determined using a film polarizer and analyzer with an excitation at 488 nm provided by a xenon arc lamp (model A1010, Photon Technologies Inc, Princeton, NJ). The dissociation reactions of dye-labeled B7 and protein complexes were monitored by fluorescence changes and were also collected in the fluorimeter described above.

T3 sequence (P22629 25-183): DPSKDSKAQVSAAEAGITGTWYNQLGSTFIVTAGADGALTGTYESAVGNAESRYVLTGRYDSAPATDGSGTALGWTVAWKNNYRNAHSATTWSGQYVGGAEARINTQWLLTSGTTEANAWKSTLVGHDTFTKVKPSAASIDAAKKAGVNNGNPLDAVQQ
T2 sequence (P02701 25-152): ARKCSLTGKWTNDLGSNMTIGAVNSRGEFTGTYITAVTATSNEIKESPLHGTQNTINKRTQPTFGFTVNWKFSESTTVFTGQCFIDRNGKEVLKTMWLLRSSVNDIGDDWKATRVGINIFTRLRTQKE
T1 sequence (P02701 25-152): as above

Structure (SMILES) | Quantum Yield QY (avidin (AV) [1]) | QY (avidin (AV) [1]; complex with AV) | dQY-AV (avidin (AV) [1]) | Maximum Absorbance (avidin (AV) [2]) [nm] | Maximum Emission (avidin (AV) [2]) [nm] | Abs (nm) (avidin (AV) [2]) | Emission (nm) (avidin (AV) [2]) | t (1), fluorescence lifetime (streptavidin (SAV)) | t° (2), intrinsic lifetime of the fluorescence dye [3] | 1-S (4) = QY/F, fraction of non-statically quenched molecules [3] | F (3) = Sat/t° [3] | S [3] | rss, Unbound [4] | other results
O=C(CCCC[C@@H]1SC[C@@H]2NC(=O)N[C@@H]21)NCCNC(=O)c1ccc(-c2c3ccc(=O)cc-3oc3cc(O)ccc23)c(C(=O)O)c1 [BFl, Biotin-4-fluorescein] | 0.44 ± 0.01 | 0.44 and 0.44 ± 0.01 | -0.1538 | 498 | 528 | 498 | 528 | 3.69 ± 0.01 | 5.2 ± 0.2 | 0.65 (2×) and 0.65 ± 0.06 | 0.81 ± 0.04 | 0.35 | 0.021 | 488, correction, absR/abs (avidin (AV) [1]; complex with AV): 1.171; QY multiplied by the 488 correction absR/abs (avidin (AV) [1]; complex with AV): 0.5154; ln(k) (de-glycosylated AV; deAV 15C (288.15 K), pH8): 15.5; k(average) (de-glycosylated AV; deAV 15C (288.15 K), pH8, full value): 5.36E+06; k(average) (de-glycosylated AV; deAV 15C (288.15 K), pH8, scaled): 5.4; Σαiτi (integrated lifetime) (streptavidin (SAV); SAV complex): 3.70 ± 0.05 ns; α1 (streptavidin (SAV); SAV complex): 0.61 ± 0.03; α2 (streptavidin (SAV); SAV complex): 0.39 ± 0.03; τ1 (streptavidin (SAV); SAV complex): 4.10 ± 0.02 ns; τ2 (streptavidin (SAV); SAV complex): 3.1 ± 0.02 ns; Lifetime τ (streptavidin (SAV); SAV complex, di-ionic fluorescein species): 4.1 ns and 4.1 ± 0.1 ns; Lifetime τ (streptavidin (SAV); SAV complex, mono-ionic fluorescein species): 3.0 ns and 3.0 ± 0.1 ns
NC(CCCCNC(=O)CCCC[C@@H]1SC[C@@H]2NC(=O)N[C@@H]21)C(=O)NCCCCCNC(=O)c1ccc(-c2c3cc(F)c(=O)cc-3oc3cc(O)c(F)cc23)c(C(=O)O)c1 (stereo partly shown) [BcO, Oregon green 488 Biocytin] | 0.62 ± 0.02 | 0.62 and 0.62 ± 0.02 | -0.3187 | 497 | 524 | 497 | 524 | 3.98 ± 0.01 | 4.4 ± 0.1 | 1 and 1.00 ± 0.02 | 0.85 ± 0.02 | 0 | 0.023 | kon (de-glycosylated AV; de-glycosylated AV, 15°C): 3.7e+06 M⁻¹ s⁻¹; Lifetime τ (streptavidin (SAV); SAV complex (AB1), 20°C, pH 8): 3.98 ± 0.01 ns
